Assay results: patent publication US9865819B2, “Nitrogen annulated perylene diimides for use as electron transport materials in organic electronic devices” (UTI Limited Partnership, priority 2016, dated 2018)
≈ marks a conversion by molar mass, not a printed value.

Experiments:
[1] = Solubility in CHCl3 by UV-vis absorbance calibration curve; assay type: physicochemical; settings: room temperature, 50 mg/mL samples stirred overnight, 0.45 μm filtered, diluted 2000x, Beer-Lambert; for solubility: CHCl3, organic solvent or mixture, thermodynamic from solid
Method: FIG. 2 is a concentration vs absorption plot for determining the solubility of compounds (5) and (7) in CHCl3. A calibration curve was made for each compound by plotting absorbance values of known concentrations. (Dotted lines). In order to determine solubility, compounds (5) and (7) were made into solutions having 50 mg/mL concentration, allowed to stir overnight and then passed through a 0.45 μm syringe filter to remove any undissolved solids. The obtained solutions were then diluted by a factor of 2000 so that their absorbance was in the range of values used for the calibration curves. By using the Beer-Lambert law and the slope of the respective curves, it was determined that the solubility of both (5) and (7) was ˜50 mg/mL. This observation is confirmed by the apparent complete dissolution of 50 mg/mL samples of either (5) or (7) in CHCl3.
With the N annulated PDI derivatives (4), (5) and (7) in hand we set out to study their optical electronic and solubility characteristics. The N-annulated PDI materials bear an extra site for alkyl chain functionalization which was envisioned to modify the solubility and self-assembly characteristics of the materials with respect to the parent PDI compound (2). […] This assertion is supported by ^1H NMR evidence showing that the N—H proton becomes more deshielded upon increasing the solution concentration, typically observed for hydrogen bonding interactions (not shown). […] [54] Importantly, such high organic solvent solubility is achieved without the need for long branched alkyl chains attached to the imide N atoms, chains that are used for almost all reported multi-PDI based materials. Thus, one can envision a wide array of alkyl chains being installed to fine-tune molecular assembly in the solid state, following the so-called “side chain engineering” methodology.

[2] = Thermal stability by TGA analysis; assay type: physicochemical
Method: The melting points of compounds (4), (5), and (7) were also determined and provide support for the assertion that compound (4) experiences intermolecular hydrogen bonding interactions. […] Dimerization improves thermal stability.

| Compound | melting point [°C] | solubility [1] [mg/mL] | solubility in CHCl3 [1] [mg/mL] | thermally stable up to / decomposition temperature (TGA) [2] [°C] |
| --- | --- | --- | --- | --- |
| CCC(CC)n1c(=O)c2ccc3c4ccc5c(=O)n(C(CC)CC)c(=O)c6cc7[nH]c8cc(c1=O)c2c3c8c7c4c56 [Compound 4, EP-NH-CAG-PDI] | 235 | < 1 |  |  |
| CCCCCCn1c2cc3c(=O)n(C(CC)CC)c(=O)c4ccc5c6ccc7c(=O)n(C(CC)CC)c(=O)c8cc1c(c6c78)c2c5c43 [Compound 5, EP-N-Hex-CAG-PDI] |  | > 50 | ~50 (≈ 79.6 mM) |  |
| CCCCCCn1c2cc3c(=O)n(C(CC)CC)c(=O)c4ccc5c6c(-c7cc8c(=O)n(C(CC)CC)c(=O)c9cc%10c%11c(c7c7ccc%12c(=O)n(C(CC)CC)c(=O)c%13cc(c%11c7c%12%13)n%10CCCCCC)c89)cc7c(=O)n(C(CC)CC)c(=O)c8cc1c(c6c78)c2c5c43 [Compound 7, BAY-EP-N-Hex-CAG-PDI] |  | > 50 | ~50 (≈ 39.9 mM) | ~425 |
